The values below come from patent US20090233796A1, “HERBICIDAL COMPOSITION” (SYNGENTA CROP PROTECTION, INC., priority 2004, published 2009).

The structures appear in SMILES notation.

What all share (assay type): in vivo
The test system of test [1] is Ipomoea. Nature of the test: Compound (A) with primisulfuron, weed plots. As to conditions: 44 DAA, Trial 3.21. As to the method: In these tests, various weeds were treated with primisulfuron alone at a rate equivalent to 35 g per hectare, […] and Compound (A) at rates equivalent to the sum of these. The compositions were formulated as an emulsifiable concentrate (EC).
(§1) The results in the tables under each application are the percentage of the plants that were killed.

Test [2] concerns Euphorbia. In words: Compound (A) with primisulfuron, weed plots. The note with it: 45 DAA, Trial 3.20.
Text: (§2) In these tests, […] and Compound (A) at rates equivalent to the sum of these. The compositions were formulated as an emulsifiable concentrate (EC).
as §1

For test [3], the system named is Galium. In words: Compound (A) with prosulfuron, weed plots. The note with it: 13 DAA, No. 3.24.
Text: as §2, §1

Test [4] has as its system Corn. In words: Compound (A) with prosulfuron, weed plots. The note with it: 13 DAA, No. 3.26.
Text: as §2, §1

Test [5] concerns Rice. Nature of the test: Compound (A) with prosulfuron, weed plots. The note with it: 13 DAA, No. 3.29. How it is done:
(§3) In these tests, various weeds were treated with prosulfinuron alone at a rate equivalent to 35 g per hectare, […] and Compound (A) at rates equivalent to the sum of these. The compositions were formulated as an emulsifiable concentrate (EC).
as §1

Test [6] deals with Wheat. Nature of the test: Compound (A) with prosulfuron, weed plots. The note with it: 13 DAA, No. 3.30. How it is done: as §3, §1
The subject of test [7] is Brachiaria. Nature of the test: Compound (A) with prosulfuron, weed plots. As to conditions: 13 DAA, No. 3.27. As to the method: as §3, §1
Test [8] relates to Euphorbia. Nature of the test: Compound (A) with prosulfuron, weed plots. As to conditions: 13 DAA, No. 3.28. How it is done:
as §3, §1

In test [9] the test system is Veronica. In words: Compound (A) with prosulfuron, weed plots. The note with it: 13 DAA, No. 3.25. How it is done:
as §3, §1

The test system of test [10] is Cyperus. In words: Compound (A) with sulcotrione, weed plots. The note with it: 14 DAA, Trial 5.1. How it is done:
In these tests, various weeds were treated with sulcotrione alone at an application rate equivalent to 1420 g per hectare, […] and Compound (A) at rates equivalent to the sum of these. The compositions were formulated as an emulsifyable concentrate (EC).
The results in the table under each application are the percentage of the plants that were killed.

`O=C(Nc1nc(OC(F)F)cc(OC(F)F)n1)NS(=O)(=O)c1ccccc1C(=O)O` [Primisulfuron, primisulfuron, reference compound]: the “percentage of the plants that were killed” value (from here on “percentage”) in [1] (7.5 g/ha) turned out to be 0%; in [1] (15 g/ha) it was 20%; in test [1] (30 g/ha), 25%; in [2] (7.5 g/ha) it was 10%; in [2] (15 g/ha), 30%; in [2] (30 g/ha) it was 50%.
Consider `COc1nc(C)nc(NC(=O)NS(=O)(=O)c2ccccc2CCC(F)(F)F)n1` [Prosulfuron, prosulfuron, reference compound], for which the “percentage” value amounted to 30% in test [3] (7.5 g/ha); 40% in [3] (15 g/ha); 70% in [3] (30 g/ha); 0% in [4] (7.5 g/ha); 0% in test [4] (15 g/ha); 0% in test [4] (30 g/ha). For the same compound, the “percentage” value in test [5] (7.5 g/ha), in test [5] (15 g/ha), in test [5] (30 g/ha), in test [6] (7.5 g/ha), in [6] (15 g/ha) and in test [6] (30 g/ha) was 0% in each case. Moreover, the “percentage” value is recorded as 0% in test [7] (7.5 g/ha); 0% in test [7] (15 g/ha); 0% in [7] (30 g/ha); 20% in [8] (7.5 g/ha); 20% in test [8] (15 g/ha); 30% in [8] (30 g/ha). Moreover, the “percentage” value in test [9] (7.5 g/ha) amounted to 0%; in test [9] (15 g/ha) it was 0%; in test [9] (30 g/ha) it was 15%.
Take `CS(=O)(=O)c1ccc(C(=O)C2C(=O)CCCC2=O)c(Cl)c1` [Sulcotrione, sulcotrione]: the “percentage” value in test [10] (50 g/ha) is listed as 25%; in test [10] (100 g/ha) it was 30%; in test [10] (200 g/ha), 30%.
